According to patent US20150072929A1, “Pharmaceutical composition comprising a mixture of carboxylated oligopeptides” (priority 2013, published 2015):

Columns and labels:
HeLa-2 cells = experiment: Anti-cancer activity in cell culture, MAD and cytopathic activity; assay type: cell-based; details: minimum amount causing degeneration of 90-95% of the cells, five days
Experimental: The anti-cancer activity of MPs. The determination of the anti-cancer activity of Anticanum in a cell culture was made in a culture of HeLa-2 cells. For this purpose, 20-120 mcg of MPs per ml of medium were added to the 199 medium. (See Table 2.) A culture without MPs in it was used as a control. Cultures were observed daily over the course of five days.

benzidine skin sarcoma = experiment: Benzidine skin sarcoma in Barbados mice
[1] = system: Ehrlich's ascites adenocarcinoma; experiment: Ehrlich's ascites adenocarcinoma in Barbados mice; details: n = 10

**Q.** What does the source list for `CC(=O)O[C@@]12CO[C@@H]1C[C@H](O)[C@@]1(C)C(=O)[C@H](O)C3=C(C)[C@@H](OC(=O)[C@H](O)[C@@H](NC(=O)OC(C)(C)C)c4ccccc4)C[C@@](O)([C@@H](OC(=O)c4ccccc4)[C@H]21)C3(C)C` [Taxotere]?
**A.** MAD (HeLa-2 cells): 10 µg/mL; Weight of Animal, After Treatment (benzidine skin sarcoma; 100 mcg/kg parenterally twice a day for two weeks, n = 7): 23 ± 1.1 g; Weight of Animal, Before Treatment (benzidine skin sarcoma; baseline, n = 7): 27 ± 2 g; Mice died (benzidine skin sarcoma; during treatment, n = 7): 2; Animal Survival (benzidine skin sarcoma; n = 10): 28 ± 1.1 days; Time of Death of Animals after the First Injection, Average Value, Experimental Animals ([1]; IP): 14 ± 1 days; Time of Death of Animals after the First Injection, Average Value, Experimental Animals ([1]; IV): 15 ± 1 days
